Values joined by “and” are separate entries in the source; they are usually repeats but may differ in a detail not shown here. Equal entries are not always repeated. Toxic doses and inconclusive results are not listed.
Tested on: L1210 leukemia ip in BDF1 mice, survival T/C
Assay: NCI In Vivo Anticancer Drug Screen. Data for tumor model L1210 Leukemia (intraperitoneal) in B6D2F1 (BDF1) mice
Settings: endpoint: mean survival time, higher = longer survival
In short: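 Read-out is survival time, reported as the treated-group measurement over the vehicle-control measurement.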

[1] = dose: 100.0 mg/kg/injection, schedule: Q01DX001 (ip), vehicle: saline
[2] = dose: 100.0 mg/kg/injection, schedule: Q04DX003 (ip), vehicle: saline with Tween-80
[3] = dose: 200.0 mg/kg/injection, schedule: Q04DX003 (ip), vehicle: saline with Tween-80
[4] = dose: 100.0 mg/kg/injection, schedule: Q01DX009 (ip), vehicle: Klucel (hydroxypropylcellulose) (HPC)
[5] = dose: 200.0 mg/kg/injection, schedule: Q01DX009 (ip), vehicle: Klucel (hydroxypropylcellulose) (HPC)
[6] = dose: 400.0 mg/kg/injection, schedule: Q01DX009 (ip), vehicle: Klucel (hydroxypropylcellulose) (HPC)
[7] = dose: 100.0 mg/kg/injection, schedule: Q04DX003 (ip), vehicle: saline
[8] = dose: 200.0 mg/kg/injection, schedule: Q04DX003 (ip), vehicle: saline
[9] = dose: 400.0 mg/kg/injection, schedule: Q04DX003 (ip), vehicle: saline with Tween-80
[10] = dose: 264.0 mg/kg/injection, schedule: Q01DX001 (ip), vehicle: carboxymethylcellulose (CMC)
[11] = dose: 400.0 mg/kg/injection, schedule: Q01DX001 (ip), vehicle: carboxymethylcellulose (CMC)
[12] = dose: 100.0 mg/kg/injection, schedule: Q04DX002 (ip), vehicle: saline with Tween-80
[13] = dose: 200.0 mg/kg/injection, schedule: Q04DX002 (ip), vehicle: saline with Tween-80
[14] = dose: 400.0 mg/kg/injection, schedule: Q04DX002 (ip), vehicle: saline with Tween-80
[15] = dose: 75.0 mg/kg/injection, schedule: Q01DX001 (ip), vehicle: saline
[16] = dose: 100.0 mg/kg/injection, schedule: Q01DX009 (ip), vehicle: saline with Tween-80
[17] = dose: 150.0 mg/kg/injection, schedule: Q01DX001 (ip), vehicle: saline
[18] = dose: 400.0 mg/kg/injection, schedule: Q01DX009 (ip), vehicle: saline with Tween-80

Question: How did the T/C (dose: 0.02 mg/kg/injection, schedule: Q01DX009 (ip), vehicle: saline) turn out when `CS(=O)(=O)Nc1ccc(Nc2c3ccccc3nc3cc([N+](=O)[O-])ccc23)cc1` was run?
Answer: 118 % of control

Question: And the T/C (dose: 0.1 mg/kg/injection, schedule: Q01DX009 (ip), vehicle: acetone)?
Answer: 119 % of control

Question: What about the T/C (dose: 0.15 mg/kg/injection, schedule: Q01DX009 (ip), vehicle: acetone) of the same molecule?
Answer: 112 % of control

Question: And the T/C (dose: 0.16 mg/kg/injection, schedule: Q01DX009 (ip), vehicle: saline)?
Answer: 153 % of control

Question: What about the T/C (dose: 0.6 mg/kg/injection, schedule: Q01DX001 (ip), vehicle: acetone) of the same molecule?
Answer: 116 % of control

Question: And the T/C (dose: 0.82 mg/kg/injection, schedule: Q01DX009 (ip), vehicle: acetone)?
Answer: 151 % of control

Question: What about the T/C (dose: 1.25 mg/kg/injection, schedule: Q01DX009 (ip), vehicle: saline) of the same molecule?
Answer: 164 % of control

Question: What about the T/C (dose: 1.25 mg/kg/injection, schedule: Q01DX009 (sc), vehicle: Klucel (hydroxypropylcellulose) (HPC)) of the same molecule?
Answer: 113 % of control

Question: And the T/C (dose: 1.56 mg/kg/injection, schedule: Q04DX003 (ip), vehicle: saline)?
Answer: 107 % of control

Question: And the T/C (dose: 2.5 mg/kg/injection, schedule: Q01DX009 (ip), vehicle: saline)?
Answer: 156 % of control and 220 % of control

Question: And the T/C (dose: 2.5 mg/kg/injection, schedule: Q01DX009 (sc), vehicle: Klucel (hydroxypropylcellulose) (HPC))?
Answer: 118 % of control

Question: What about the T/C (dose: 3.12 mg/kg/injection, schedule: Q04DX003 (ip), vehicle: saline) of the same molecule?
Answer: 107 % of control

Question: And the T/C (dose: 3.13 mg/kg/injection, schedule: Q01DX001 (ip), vehicle: saline)?
Answer: 151 % of control

Question: What about the T/C (dose: 5.0 mg/kg/injection, schedule: Q01DX009 (ip), vehicle: saline) of the same molecule?
Answer: 184 % of control

Question: And the T/C (dose: 6.25 mg/kg/injection, schedule: Q01DX001 (ip), vehicle: saline)?
Answer: 159 % of control

Question: What about the T/C (dose: 6.25 mg/kg/injection, schedule: Q04DX003 (ip), vehicle: saline) of the same molecule?
Answer: 107 % of control

Question: What about the T/C (dose: 10.0 mg/kg/injection, schedule: Q01DX009 (sc), vehicle: Klucel (hydroxypropylcellulose) (HPC)) of the same molecule?
Answer: 195 % of control

Question: And the T/C (dose: 12.5 mg/kg/injection, schedule: Q01DX001 (ip), vehicle: saline)?
Answer: 161 % of control

Question: And the T/C (dose: 25.0 mg/kg/injection, schedule: Q01DX001 (ip), vehicle: saline)?
Answer: 240 % of control

Question: What about the T/C [1] of the same molecule?
Answer: 168 % of control

Question: With `CC(O)C/C=N\N=C(N)N` (stereo unspecified) as the molecule, how does the T/C (dose: 15.0 mg/kg/injection, schedule: Q01DX Z (ip), vehicle: methylcellulose (MC)) read?
Answer: 95 % of control

Question: What about the T/C (dose: 15.0 mg/kg/injection, schedule: Q01DX Z (oral), vehicle: methylcellulose (MC)) of the same molecule?
Answer: 101 % of control

Question: What about the T/C (dose: 30.0 mg/kg/injection, schedule: Q01DX Z (oral), vehicle: methylcellulose (MC)) of the same molecule?
Answer: 88 % of control

Question: And the T/C (dose: 60.0 mg/kg/injection, schedule: Q01DX Z (oral), vehicle: methylcellulose (MC))?
Answer: 94 % of control

Question: And the T/C (dose: 120.0 mg/kg/injection, schedule: Q01DX Z (oral), vehicle: methylcellulose (MC))?
Answer: 88 % of control

Question: How did the T/C [2] turn out when `OCC1=CCC2c3[nH]c4ccccc4c3CCN2C1` (stereo unspecified) was run?
Answer: 106 % of control

Question: What about the T/C [3] of the same molecule?
Answer: 90 % of control

Question: Which results are given for `COCC(=O)O`?
Answer: T/C (dose: 100.0 mg/kg/injection, schedule: Q01DX001 (ip), vehicle: Klucel (hydroxypropylcellulose) (HPC)): 100 % of control; T/C (dose: 100.0 mg/kg/injection, schedule: Q04DX002 (ip), vehicle: saline): 102 % of control; T/C (dose: 200.0 mg/kg/injection, schedule: Q01DX001 (ip), vehicle: Klucel (hydroxypropylcellulose) (HPC)): 96 % of control; T/C (dose: 200.0 mg/kg/injection, schedule: Q04DX002 (ip), vehicle: saline): 94 % of control; T/C (dose: 400.0 mg/kg/injection, schedule: Q01DX001 (ip), vehicle: Klucel (hydroxypropylcellulose) (HPC)): 100 % of control; T/C (dose: 400.0 mg/kg/injection, schedule: Q04DX002 (ip), vehicle: saline): 97 % of control

Question: What does the source list for `COc1ccc(NC(=O)NC(C)(C)C)c(OC)c1`?
Answer: T/C [4]: 100 % of control; T/C [5]: 100 % of control; T/C [6]: 98 % of control

Question: For `COC(=O)CC(=O)c1ccc(C)cc1`, which T/C [4] is on record?
Answer: 101 % of control

Question: And the T/C (dose: 100.0 mg/kg/injection, schedule: Q04DX003 (ip), vehicle: Klucel (hydroxypropylcellulose) (HPC))?
Answer: 108 % of control

Question: What about the T/C [5] of the same molecule?
Answer: 95 % of control

Question: And the T/C (dose: 200.0 mg/kg/injection, schedule: Q04DX003 (ip), vehicle: Klucel (hydroxypropylcellulose) (HPC))?
Answer: 111 % of control

Question: What about the T/C [6] of the same molecule?
Answer: 104 % of control

Question: What about the T/C (dose: 400.0 mg/kg/injection, schedule: Q04DX003 (ip), vehicle: Klucel (hydroxypropylcellulose) (HPC)) of the same molecule?
Answer: 95 % of control

Question: For `O=C(O)c1c(Cl)c(Cl)c(Cl)c(Cl)c1-c1c2ccc(=O)c(O)c-2oc2c(O)c(O)ccc12`, which T/C [7] is on record?
Answer: 102 % of control

Question: And the T/C [8]?
Answer: 93 % of control

Question: What does the source list for `COc1cc(C(=O)O)ccc1N`?
Answer: T/C [2]: 102 % of control; T/C [3]: 104 % of control; T/C [9]: 102 % of control

Question: With `O=C(Nc1ccc(C(=O)CCl)cc1)Nc1ccc(C(=O)CCl)cc1` as the molecule, how does the T/C (dose: 100.0 mg/kg/injection, schedule: Q01DX005 (ip), vehicle: saline) read?
Answer: 100 % of control

Question: What about the T/C [7] of the same molecule?
Answer: 101 % of control

Question: What about the T/C (dose: 200.0 mg/kg/injection, schedule: Q01DX005 (ip), vehicle: saline) of the same molecule?
Answer: 102 % of control

Question: What about the T/C [8] of the same molecule?
Answer: 104 % of control

Question: What about the T/C (dose: 400.0 mg/kg/injection, schedule: Q01DX005 (ip), vehicle: saline) of the same molecule?
Answer: 103 % of control

Question: What about the T/C (dose: 400.0 mg/kg/injection, schedule: Q04DX003 (ip), vehicle: saline) of the same molecule?
Answer: 93 % of control

Question: How did the T/C (dose: 75.0 mg/kg/injection, schedule: Q01DX001 (ip), vehicle: carboxymethylcellulose (CMC)) turn out when `CCC(=O)NC1=CC(=O)c2ccccc2C1=O` was run?
Answer: 98 % of control

Question: And the T/C (dose: 150.0 mg/kg/injection, schedule: Q01DX001 (ip), vehicle: carboxymethylcellulose (CMC))?
Answer: 97 % of control

Question: What about the T/C (dose: 300.0 mg/kg/injection, schedule: Q01DX001 (ip), vehicle: carboxymethylcellulose (CMC)) of the same molecule?
Answer: 95 % of control

Question: What does the source list for `CCOc1nc(OCC)c2[nH]c(C(=O)O)c(Br)c2n1`?
Answer: T/C (dose: 50.0 mg/kg/injection, schedule: Q01DX001 (ip), vehicle: saline): 107 % of control; T/C [1]: 100 % of control; T/C (dose: 200.0 mg/kg/injection, schedule: Q01DX001 (ip), vehicle: saline): 105 % of control; T/C (dose: 400.0 mg/kg/injection, schedule: Q01DX001 (ip), vehicle: saline): 107 % of control

Question: How did the T/C (dose: 176.0 mg/kg/injection, schedule: Q01DX001 (ip), vehicle: carboxymethylcellulose (CMC)) turn out when `COC(=O)c1[nH]ncc1N=NN(C)C` was run?
Answer: 111 % of control

Question: And the T/C [10]?
Answer: 120 % of control

Question: And the T/C [11]?
Answer: 113 % of control

Question: For `O=C(Cc1ccccc1)C(c1ccccc1)C(c1ccccc1)c1ccccc1` (stereo unspecified), which T/C [12] is on record?
Answer: 96 % of control

Question: What about the T/C [13] of the same molecule?
Answer: 111 % of control

Question: What about the T/C [14] of the same molecule?
Answer: 107 % of control

Question: Which results are given for `COC(=O)CSC(=S)N(C)C`?
Answer: T/C [2]: 91 % of control; T/C [3]: 91 % of control; T/C [9]: 94 % of control

Question: How did the T/C [15] turn out when `NC(=O)OCC(N)C(=O)O` (stereo unspecified) was run?
Answer: 96 % of control

Question: What about the T/C [16] of the same molecule?
Answer: 89 % of control

Question: And the T/C [17]?
Answer: 94 % of control

Question: And the T/C (dose: 200.0 mg/kg/injection, schedule: Q01DX009 (ip), vehicle: saline with Tween-80)?
Answer: 87 % of control

Question: What about the T/C (dose: 300.0 mg/kg/injection, schedule: Q01DX001 (ip), vehicle: saline) of the same molecule?
Answer: 100 % of control

Question: And the T/C [18]?
Answer: 90 % of control

Question: What does the source list for `C/C(=C\C(=O)O)C(=O)O` (tested in a mixture with another compound)?
Answer: T/C [10]: 113 % of control; T/C [11]: 112 % of control; T/C (dose: 600.0 mg/kg/injection, schedule: Q01DX001 (ip), vehicle: carboxymethylcellulose (CMC)): 112 % of control

Question: For `Nc1cccc2c1C(O)c1ccccc1-2` (stereo unspecified), which T/C [2] is on record?
Answer: 101 % of control

Question: What about the T/C [3] of the same molecule?
Answer: 97 % of control

Question: What about the T/C [9] of the same molecule?
Answer: 101 % of control

Question: What does the source list for `Cc1cccc(C)c1NC(=S)NNC(=O)c1ccncc1`?
Answer: T/C [16]: 97 % of control; T/C [12]: 101 % of control; T/C [13]: 96 % of control; T/C [18]: 100 % of control; T/C [14]: 101 % of control

Question: With `N#Cc1ccc(P(=O)(O)O)cc1` as the molecule, how does the T/C [15] read?
Answer: 102 % of control

Question: And the T/C [17]?
Answer: 94 % of control

Question: Which results are given for `COc1cccc2c1OC(COS(C)(=O)=O)CO2` (stereo unspecified) (tested in a mixture with another compound)?
Answer: T/C (dose: 100.0 mg/kg/injection, schedule: Q01DX001 (ip), vehicle: carboxymethylcellulose (CMC)): 95 % of control; T/C (dose: 200.0 mg/kg/injection, schedule: Q01DX001 (ip), vehicle: carboxymethylcellulose (CMC)): 95 % of control; T/C [11]: 97 % of control

Reference: PubChem BioAssay AID248 (DTP/NCI, 2004)
